Source: US11766044B2, “Method for controlling PPO resistant weeds” (BASF SE, priority 2016, dated 2023)
Where two headings read alike, the source gives them in different places.

Assays:
[1] = system: sensitive (w.10) and resistant weeds (w.11, w.12); assay: Third greenhouse experiment, summary in words; assay type: in vivo, Amaranthus tamariscinus; details: table 4, 2 and 4 g/ha
[2] = system: sensitive (w.1, w.4) and resistant weeds (w.2, w.3, w.5, w.6); assay: First greenhouse experiment, summary in words; assay type: in vivo, Amaranthus tamariscinus, Ambrosia elatior; details: table 2, 1 and 2 g/ha
[3] = system: Amaranthus tamariscinus (AMATA, common waterhemp), PPO resistant biotype 1 (w.2); assay type: in vivo; details: scale 0 to 100
[4] = system: Amaranthus tamariscinus (AMATA, common waterhemp), Sensitive (w.1); assay type: in vivo
[5] = system: Ambrosia elatior (AMBEL, common ragweed), Sensitive (w.4); assay type: in vivo; details: scale 0 to 100
[6] = system: Amaranthus tamariscinus (AMATA, common waterhemp), PPO resistant biotype 2 (w.3); assay type: in vivo; details: scale 0 to 100
[7] = system: Amaranthus tuberculatus (AMATU, tall waterhemp), Sensitive (w.7); assay: Greenhouse herbicidal activity test, another (second) experiment, weed w.7; assay type: in vivo; details: scale 0 to 100

C#CCOc1cc(-n2nc3n(c2=O)CCCC3)c(Cl)cc1Cl [azafenidin, reference compound]
control of resistant in comparison to sensitive biotypes [1]: much weaker control

C#CCN1C(=O)COc2cc(F)c(N3C(=O)C4=C(CCCC4)C3=O)cc21 [flumioxazin, reference compound]
control of resistant in comparison to sensitive biotypes [2]: much weaker control

CCOC(=O)COc1ncccc1Oc1cc(-n2c(=O)cc(C(F)(F)F)n(C)c2=O)c(F)cc1Cl [compound (I).1]
activity on both sensitive and resistant weeds ([2]; sensitive w.1, w.4, resistant w.2, w.3, w.5, w.6): very good activity | Weed control (%) w.2 ([3]; use rate 1 g/ha): 100% | Weed control (%) w.2 ([3]; use rate 2 g/ha): 100% | Weed control (%) w.1 ([4]; use rate 1 g/ha, scale 0 to 100): 100% | Weed control (%) w.1 ([4]; use rate 2 g/ha, scale 0 to 100, 100 = complete destruction): 100% | Weed control (%) w.4 ([5]; use rate 1 g/ha): 100% | Weed control (%) w.4 ([5]; use rate 2 g/ha): 100% | Weed control (%) w.3 ([6]; use rate 1 g/ha): 100% | Weed control (%) w.3 ([6]; use rate 2 g/ha): 100% | Weed control (%) 7 ([7]; use rate 1 g/ha): 100% | Weed control (%) 7 ([7]; use rate 2 g/ha): 100%

CCOC(=O)COc1ccccc1Oc1cc(-n2c(=O)cc(C(F)(F)F)n(C)c2=O)c(F)cc1Cl [compound (I).4]
activity on both sensitive and resistant weeds ([1]; sensitive w.10, resistant w.11, w.12): very good activity
